Laboratory results: the NIST ThermoML archive (doi:10.1016/j.jct.2013.09.028)

How the values were obtained:
[1] = refractive index (Na D-line) (dimensionless); settings: 101.33 kPa, Liquid, Standard Abbe refractometry
[2] = 101.33 kPa, Liquid; for viscosity: Capillary tube (Ostwald / Ubbelohde) method; for speed of sound: Sing-around technique in a fixed-path interferometer; for mass density: Vibrating tube method

CCCCCc1c(C)cc(C)c[n+]1CC.O=S(=O)([N-]S(=O)(=O)C(F)(F)F)C(F)(F)F
Settings	mass density, [2] [kg/m3]	refractive index, [1]	speed of sound, [2] [m/s]	viscosity, [2] [mPa·s]
298.15 K	1323.9	1.46108	1309	260
303.15 K	1319.56	1.45947	1296	187
308.15 K	1315.21	1.45787	1283	138
313.15 K	1310.86	1.45627	1270	104
318.15 K	1306.53	1.45463	1258	79.9
323.15 K	1302.2	1.45304	1245	62.8
328.15 K	1297.9	1.45139	1233	50.1
333.15 K	1293.6	1.44979	1221	40.7
338.15 K	1289.3	1.44822	1209	33.5
343.15 K	1285.03	1.44667	1198	28

CCCCCC[n+]1cc(C)cc(C)c1C.O=S(=O)([N-]S(=O)(=O)C(F)(F)F)C(F)(F)F
Settings	mass density, [2] [kg/m3]	refractive index, [1]	speed of sound, [2] [m/s]	viscosity, [2] [mPa·s]
298.15 K	1336.18	1.46466	1288	174
303.15 K	1331.83	1.46311	1276	129
308.15 K	1327.48	1.4615	1264	98.2
313.15 K	1323.15	1.4599	1252	76.2
318.15 K	1318.83	1.45826	1240	60.2
323.15 K	1314.52	1.45671	1229	48.3
328.15 K	1310.23	1.45514	1218	39.3
333.15 K	1305.85	1.45357	1206	32.4
338.15 K	1301.66	1.452	1195	27.1
343.15 K	1297.4	1.45044	1184	23
